Laboratory results as given in paper PMC4632357, “Impact of chrysosplenetin on the pharmacokinetics and anti-malarial efficacy of artemisinin against Plasmodium berghei as well as in vitro CYP450 enzymatic activities in rat liver microsome” (Malaria Journal, 2015).

What was measured:
[1] = Pharmacokinetics of ART in rats in absence and presence of CHR; assay type: in vivo; settings: ART in rat plasma, ART 5 mg/kg intramuscular on day 3, 1 h after 3-day oral CHR (5, 10, 20 mg/kg for 1:1, 1:2, 1:4) or CMC-Na, n = 5, mean ± SD
Experimental: Male SD rats (200-240 g) were supplied by Laboratory Animal Center of […] Medical University (Grade II, Certificate No. […] Animals were acclimatized in environmentally controlled breeding cages for at least 3 days before being used and were provided with standard laboratory food and water and were fasted for 12 h prior to the study. Water was freely available for rats during experiments. The experimental protocol was approved by the University Ethics Committee. All procedures involving animals were in accordance with the Regulations of the Experimental Animal Administration, State Committee of Science and Technology, People's Republic of China. 20 rats were randomly divided into 4 groups (n = 5). Group A was the control vehicle (ART alone) and group L, M, and H were the combination groups with CHR in three fixed ratios (1:1, 1:2, and 1:4). […] Group A was orally given by 0.5 % CMC-Na solution once per day for 3 days. On day 3, an intramuscular injection of ART (5 mg/kg) was subsequently administered 1 h after CHR or CMC-Na solution pre-exposure. […] Two hours later, animals took food and water freely to replenish. Plasma samples were separated by centrifugation 3500g for 10 min and 200 μL plasmas were stored at -20 °C until analysis. To 100 μL blank plasma, 50 μL ARM working solution (IS, 2 μg/mL), 100 μL methanol aqueous solution (50:50, v/v), and a standard solution or quality control (QC) solution were added. After vortex mixing for 1 min, the sample was extracted with 3 × 3 mL of methyl tert-butyl ether with gentle shaking for 10 min followed by centrifugation at 3500g for 10 min. […] The residue was reconstituted in 100 μL methanol and was filtered through a 0.22 μm nylon filter. Aliquots (10 μL) of the solution were injected onto the LC-MS analysis. Pharmacokinetic parameters were computed from plasma concentration-time profiles of ART by software DAS 3.0.

[2] = design: method as in PMID 17521300, PMID 18064444, PMID 9443848; settings: cited from earlier work
P. berghei K173 strain = experiment: In vivo anti-malarial efficacy (chemo-suppressive study) in infected mice; settings: for Parasitemia: placebo 22.15 ± 6.25
CYP2A [3] = experiment: In vitro rat liver microsome experiment, CYP2A (probe CA)
CYP2A [4] = experiment: in vitro; settings: rat
CYP2E1 = CYP2E1 (Rattus norvegicus, UniProt P05182); experiment: In vitro rat liver microsome experiment, CYP2E1 (probe CLZ); assay type: in vitro ADME
CYP2D6 = experiment: In vitro rat liver microsome experiment, CYP2D6 (probe DM); assay type: in vitro ADME
Experimental: (§1) Total reaction volume was complemented to 200 μL by PBS. After pre-incubating for 3 min at 37 °C, the reaction was initiated by the addition of NADPH solution (incubation time was optimized as 45 min for PN; 60 min for CA, 15 min for OPZ; 20 min for DM; 90 min for CLZ; 15 min for MDZ). 200 μL ice acetonitrile was added as stop reagent. After a vortex for 3 min and centrifugation for 10 min at 14,000g, an aliquot of 20 μL supernatant was injected into the HPLC system at an interval of 10 min. The amount of methanol in diluted concentrations (<1 %) had no effect on liver microsomes. All the testing groups were in three replicates (n = 3). Under the optimized condition, Vmax, Michaelis constant (Km), enzyme activity (E%), and IC50 values were obtained.

CYP2C19 [5] = experiment: In vitro rat liver microsome experiment, CYP2C19 (probe OPZ)
CYP1A2 = molecular target: T1, CYP1A2 (Rattus norvegicus, UniProt P04799); experiment: In vitro rat liver microsome experiment, CYP1A2 (probe PN); assay type: in vitro ADME
T1 sequence (P04799 1-513): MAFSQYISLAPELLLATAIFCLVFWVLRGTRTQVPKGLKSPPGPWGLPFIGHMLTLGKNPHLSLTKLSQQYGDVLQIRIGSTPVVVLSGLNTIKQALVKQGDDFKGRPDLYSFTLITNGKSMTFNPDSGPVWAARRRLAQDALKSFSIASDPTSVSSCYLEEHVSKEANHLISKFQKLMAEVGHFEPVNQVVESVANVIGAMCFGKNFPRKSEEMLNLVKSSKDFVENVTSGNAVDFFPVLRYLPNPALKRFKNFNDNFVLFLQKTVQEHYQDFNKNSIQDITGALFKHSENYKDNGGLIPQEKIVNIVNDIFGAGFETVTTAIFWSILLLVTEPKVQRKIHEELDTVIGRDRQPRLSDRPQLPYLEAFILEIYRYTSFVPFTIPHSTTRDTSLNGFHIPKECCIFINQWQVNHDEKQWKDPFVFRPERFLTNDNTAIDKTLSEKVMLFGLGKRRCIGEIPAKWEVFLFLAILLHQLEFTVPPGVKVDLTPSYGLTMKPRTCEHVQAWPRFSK

CYP3A = experiment: In vitro rat liver microsome experiment, CYP3A (probe MDZ); assay type: in vitro ADME
Experimental: as §1
Incubation systems including 1.0 mg/mL RLM, PN (12.5, 25.0, and 50.0 μM), NPDPH, and CHR (0, 2, 4, 8 μM) for 1A2 or 0.5 mg/mL RLM, MDZ (2.5, 5.0, 10.0 μM), NPDPH, and CHR (0, 2, 4, 8 μM) for CYP3A were employed as above (n = 3). A serial of Lineweaver–Burk plots by 1/[S] versus 1/V were prepared individually under different concentrations of CHR. The location of intersection point for the linear lines decided the type of inhibition. Namely, if the point lied in Y axis it was competitive inhibition and if it lied in X axis it was non-competitive inhibition. Finally, if the linear lines were paralleled, it was uncompetitive inhibition. Concomitantly, inhibition constant (Ki) was calculated when a second plotting was given by intercepts of the four lines versus [I] (inhibitor concentration).

CYP2C19 [6] = experiment: in vitro; settings: rat
[7] = substrate: CCOc1ccc(NC(C)=O)cc1; experiment: cells, lysate or membranes named; settings: other: probe substrate in rat liver microsomes; 37.0 °C
[8] = probe substrate in rat liver microsomes
[9] = rat liver microsomes, CHR 0–50 μM, P > 0.05
[10] = moderate: 1 < IC50 < 10 μM, criteria of ref 21
[11] = Lineweaver–Burk plots, rat liver microsomes

Chain of CYP2E1 (P05182 whole entry): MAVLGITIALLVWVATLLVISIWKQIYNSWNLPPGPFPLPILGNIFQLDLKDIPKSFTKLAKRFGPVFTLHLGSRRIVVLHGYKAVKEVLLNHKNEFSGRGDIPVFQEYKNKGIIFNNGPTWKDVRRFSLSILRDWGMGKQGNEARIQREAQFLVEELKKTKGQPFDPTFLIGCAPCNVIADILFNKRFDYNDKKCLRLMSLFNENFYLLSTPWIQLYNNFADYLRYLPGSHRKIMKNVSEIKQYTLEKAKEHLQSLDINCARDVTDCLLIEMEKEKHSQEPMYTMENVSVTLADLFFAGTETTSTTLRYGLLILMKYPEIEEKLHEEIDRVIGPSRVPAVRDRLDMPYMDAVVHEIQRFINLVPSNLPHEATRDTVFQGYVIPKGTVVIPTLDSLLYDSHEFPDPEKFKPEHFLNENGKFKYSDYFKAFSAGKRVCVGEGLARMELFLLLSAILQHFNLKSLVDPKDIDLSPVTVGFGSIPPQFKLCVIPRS

For `C[C@@H]1CC[C@H]2[C@@H](C)C(=O)O[C@@H]3O[C@@]4(C)CC[C@@H]1[C@]32OO4` [ART, Artemisinin], the “AUC0–t” value [1] was 390.58 ± 32.46 µg·h/mL, the Cmax ([1]; male) was 51.6 ± 9.47 µg/mL and the half-life ([1]; male) was 3.62 ± 0.86 h. For the same molecule, the clearance ([1]; male, read-out: CLz (converted)) was 0.217 mL/min/kg, the oral bioavailability [2] was 8–10% and the Parasitemia (P. berghei K173 strain; Kunming mice, ART 5 mg/kg alone or with CHR 5, 10, 20 mg/kg (1:1, 1:2, 1:4), 3 days, 24 h after last dosing, n = 10) was 13.95 ± 7.89 %. For the same molecule, the “decrease of parasitaemia (%) compared with placebo” value (P. berghei K173 strain; mice, P < 0.05) was 1.59 folds and the Inhibition (P. berghei K173 strain; relative to placebo, Kunming mice, ART 5 mg/kg alone or with CHR 5, 10, 20 mg/kg, n = 10) was 37.06%.

`O=c1ccc2ccccc2o1` [CA, coumarin, reference compound] showed a Vmax (CYP2A [3]; [8]) of 0.12 nmol/min/mg proteins and a Km at 60 min (CYP2A [4]) of 8.9 µM.

In the case of `COc1cc(-c2oc3cc(OC)c(OC)c(O)c3c(=O)c2OC)ccc1O` [CHR, chrysosplenetin], the “impact on enzyme activity” value (CYP2A [3]; [9]) is reported as “no impact”, the IC50 (CYP2E1; rat liver microsomes, CLZ 15 μM, GraphPad Prism 5.0) is reported as 28.2 µM and the inhibitor strength class (CYP2E1; weak: IC50 >10 μM, criteria of ref 21) is reported as “weak inhibitor”. The “impact on enzyme activity” value (CYP2D6; [9]) was “no impact”, the Parasitemia (P. berghei K173 strain; CHR alone 5 mg/kg (CHR-L), Kunming mice, n = 10) was 19.74 ± 13.33% and the Parasitemia (P. berghei K173 strain; CHR alone 10 mg/kg (CHR-M), Kunming mice, n = 10) was 17.19 ± 5.45%. For the same molecule, the Parasitemia (P. berghei K173 strain; CHR alone 20 mg/kg (CHR-H), Kunming mice, n = 10) was 18.32 ± 8.86%, the inhibitor strength class (CYP2C19 [5]; [10]) was “moderate inhibitor” and the IC50 at 15 min (CYP2C19 [5]; rat, microsomes) was 6.23 µM. The Ki (CYP1A2; 1.0 mg/mL RLM, PN 12.5, 25.0, 50.0 μM, CHR 0, 2, 4, 8 μM, second plot of Lineweaver–Burk intercepts) was 4.07 µM, the inhibition type (CYP1A2; [11]) was “noncompetitive” and the inhibitor strength class (CYP1A2; [10]) was “moderate inhibitor”. The IC50 (CYP1A2; rat liver microsomes, PN 25 μM, GraphPad Prism 5.0) was 4.61 µM, the inhibition type (CYP3A; [11]) was “uncompetitive” and the inhibitor strength class (CYP3A; [10]) was “moderate inhibitor”. For the same molecule, the IC50 at 15 min (CYP3A; probe midazolam (MDZ) 5 μM, rat liver microsomes, MDZ 5 μM, GraphPad Prism 5.0) was 3.38 µM and the Ki at 15 min (CYP3A; rat, rat liver microsomes, probe midazolam (MDZ) 2.5, 0.5 mg/mL RLM, MDZ 2.5, 5.0, 10.0 μM, CHR 0, 2, 4, 8 μM, second plot of Lineweaver–Burk intercepts) was 3.71 µM.

In the case of `COc1ccc2c(c1)[C@]13CCCC[C@@H]1[C@H](C2)N(C)CC3` [DM, dextromethophan], the Km (CYP2D6; [8]) is reported as 28.9 µM and the Vmax (CYP2D6; [8]) is reported as 0.20 nmol/min/mg proteins.

`Cc1ncc2n1-c1ccc(Cl)cc1C(c1ccccc1F)=NC2` [MDZ, Midazolam, reference compound] gave a Km at 15 min (CYP3A; [8]) of 7.88 µM and a Vmax (CYP3A; [8]) of 0.81 nmol/min/mg proteins.

With `COc1ccc2[nH]c([S+]([O-])Cc3ncc(C)c(OC)c3C)nc2c1` (centres unmarked) [OPZ, omeprazole, reference compound] the Vmax (CYP2C19 [5]; [8]) was 0.58 nmol/min/mg proteins and the Km at 15 min (CYP2C19 [6]) was 24.1 µM.

B1: CYP1A2 (Rattus norvegicus) (protein)
chain: MAFSQYISLAPELLLATAIFCLVFWVLRGTRTQVPKGLKSPPGPWGLPFIGHMLTLGKNPHLSLTKLSQQYGDVLQIRIGSTPVVVLSGLNTIKQALVKQGDDFKGRPDLYSFTLITNGKSMTFNPDSGPVWAARRRLAQDALKSFSIASDPTSVSSCYLEEHVSKEANHLISKFQKLMAEVGHFEPVNQVVESVANVIGAMCFGKNFPRKSEEMLNLVKSSKDFVENVTSGNAVDFFPVLRYLPNPALKRFKNFNDNFVLFLQKTVQEHYQDFNKNSIQDITGALFKHSENYKDNGGLIPQEKIVNIVNDIFGAGFETVTTAIFWSILLLVTEPKVQRKIHEELDTVIGRDRQPRLSDRPQLPYLEAFILEIYRYTSFVPFTIPHSTTRDTSLNGFHIPKECCIFINQWQVNHDEKQWKDPFVFRPERFLTNDNTAIDKTLSEKVMLFGLGKRRCIGEIPAKWEVFLFLAILLHQLEFTVPPGVKVDLTPSYGLTMKPRTCEHVQAWPRFSK
B1 showed a Km [7] of 30.88 µM and a Vmax [7] of 0.14 nmol/min/mg proteins.
